This note sets out measurements from patent publication US20220202799A1, “PHARMACEUTICAL FORMULATIONS CONTAINING P2Y14 ANTAGONISTS” (priority 2019, published 2022).

This series is described as follows: Effect of pH on solubility of PPTN in aqueous medium. Format: physicochemical. The method, then: The effect of pH on the solubility of PPTN in an aqueous medium was analyzed. Solutions of PPTN in either water or phosphate buffer at various pH values were incubated with agitation for 24-48 hours at room temperature then filtered to remove precipitates, and the PPTN concentration of the filtered solution was analyzed.

Where “and” joins values, the source holds several entries; their conditions need not be identical. Equal values may be shown once.

As for `Cl.O=C(O)c1cc(-c2ccc(C3CCNCC3)cc2)c2ccc(-c3ccc(C(F)(F)F)cc3)cc2c1` [KB-1801.HCl], the “[KB-1801.HCl] by HPLC Analysis (solubility)” value is 0.0008 mg/mL and 1.6 μM (pH 1.9, 10 mM phosphate buffer, 24-48 h, ~22° C.); 0.0255 mg/mL and 50 μM (pH 2.8, 10 mM phosphate buffer, 24-48 h, ~22° C.); ~0.1 mg/mL and 195 μM (pH 4.8, 0 mM buffer (DIW), >24 h, ~25° C. (from initial sonication)); 0.0001 mg/mL and 0.2 μM (pH 6.6, 10 mM phosphate buffer, 24-48 h, ~22° C.); 0.0001 mg/mL and 0.2 μM (pH 8.2, 10 mM phosphate buffer, 24-48 h, ~22° C.).
